Measurements published in PubChem BioAssay AID250 (DTP/NCI, 2004).
“And” between values parts separate entries of the source, which are not always exact repeats. Equal entries are not always repeated. Inconclusive results and toxic doses are left out.

System: BDF1 mice, L1210 leukemia sc, survival T/C
Assay: NCI In Vivo Anticancer Drug Screen. Data for tumor model L1210 Leukemia (subcutaneous) in B6D2F1 (BDF1) mice
Conditions: endpoint: median survival time, higher = longer survival
Summary of the method: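 Mice carrying transplanted tumors received test compounds, and survival or tumor size was measured. Values are the treated-group measurement (T) divided by that of the vehicle-treated control group (C).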

N=c1ccn2c(n1)OC1C(O)C(CO)OC12 (stereo not given)
T/C (dose: 9.38 mg/kg/injection, schedule: Q03HX024 (sc), vehicle: water): 190 % of control
T/C (dose: 18.75 mg/kg/injection, schedule: Q03HX024 (sc), vehicle: water): 200 % of control
T/C (dose: 25.0 mg/kg/injection, schedule: Q01DX009 (sc), vehicle: water): 203 % of control and 170 % of control
T/C (dose: 25.0 mg/kg/injection, schedule: Q## X009 (sc), vehicle: water): 203 % of control and 172 % of control
T/C (dose: 37.5 mg/kg/injection, schedule: Q01DX008 (sc), vehicle: water): 227 % of control and 228 % of control
T/C (dose: 37.5 mg/kg/injection, schedule: Q01DX009 (sc), vehicle: water): 180 % of control
T/C (dose: 37.5 mg/kg/injection, schedule: Q03HX024 (sc), vehicle: water): 205 % of control
T/C (dose: 50.0 mg/kg/injection, schedule: Q01DX009 (sc), vehicle: water): 184 % of control [middle of 4 runs]
T/C (dose: 50.0 mg/kg/injection, schedule: Q## X009 (sc), vehicle: water): 214 % of control and 188 % of control
T/C (dose: 65.0 mg/kg/injection, schedule: Q01DX009 (sc), vehicle: water): 191 % of control
T/C (dose: 75.0 mg/kg/injection, schedule: Q01DX008 (sc), vehicle: water): 228 % of control and 233 % of control
T/C (dose: 75.0 mg/kg/injection, schedule: Q01DX009 (oral), vehicle: water): 180 % of control
T/C (dose: 75.0 mg/kg/injection, schedule: Q01DX009 (sc), vehicle: water): 203 % of control and 190 % of control
T/C (dose: 75.0 mg/kg/injection, schedule: Q03HX024 (sc), vehicle: water): 220 % of control
T/C (dose: 75.0 mg/kg/injection, schedule: Q## X009 (sc), vehicle: water): 203 % of control
T/C (dose: 100.0 mg/kg/injection, schedule: Q01DX009 (ip), vehicle: saline): 168 % of control and 172 % of control
T/C (dose: 100.0 mg/kg/injection, schedule: Q01DX009 (ip), vehicle: water): 205 % of control
T/C (dose: 100.0 mg/kg/injection, schedule: Q01DX009 (sc), vehicle: water): 206 % of control [middle of 4 runs]
T/C (dose: 100.0 mg/kg/injection, schedule: Q## X009 (sc), vehicle: water): 222 % of control and 211 % of control
T/C (dose: 108.0 mg/kg/injection, schedule: Q01DX009 (sc), vehicle: water): 183 % of control
T/C (dose: 108.0 mg/kg/injection, schedule: Q01DX014 (sc), vehicle: water): 210 % of control
T/C (dose: 108.0 mg/kg/injection, schedule: Q01DX015 (sc), vehicle: water): 194 % of control and 200 % of control
T/C (dose: 150.0 mg/kg/injection, schedule: Q01DX008 (sc), vehicle: water): 247 % of control and 250 % of control
T/C (dose: 150.0 mg/kg/injection, schedule: Q01DX009 (oral), vehicle: water): 175 % of control
T/C (dose: 150.0 mg/kg/injection, schedule: Q01DX009 (sc), vehicle: water): 233 % of control and 200 % of control
T/C (dose: 150.0 mg/kg/injection, schedule: Q03HX008 (sc), vehicle: water): 150 % of control
T/C (dose: 150.0 mg/kg/injection, schedule: Q03HX024 (sc), vehicle: water): 210 % of control
T/C (dose: 150.0 mg/kg/injection, schedule: Q## X009 (sc), vehicle: water): 233 % of control
T/C (dose: 180.0 mg/kg/injection, schedule: Q01DX009 (sc), vehicle: water): 207 % of control
T/C (dose: 180.0 mg/kg/injection, schedule: Q01DX014 (sc), vehicle: water): 253 % of control
T/C (dose: 180.0 mg/kg/injection, schedule: Q01DX015 (sc), vehicle: water): 222 % of control and 223 % of control
T/C (dose: 200.0 mg/kg/injection, schedule: Q01DX009 (ip), vehicle: saline): 180 % of control and 190 % of control
T/C (dose: 200.0 mg/kg/injection, schedule: Q01DX009 (ip), vehicle: water): 227 % of control
T/C (dose: 200.0 mg/kg/injection, schedule: Q01DX009 (sc), vehicle: water): 236 % of control [middle of 4 runs]
T/C (dose: 200.0 mg/kg/injection, schedule: Q## X009 (sc), vehicle: water): 247 % of control and 238 % of control
T/C (dose: 300.0 mg/kg/injection, schedule: Q01DX001 (sc), vehicle: water): 120 % of control
T/C (dose: 300.0 mg/kg/injection, schedule: Q01DX008 (sc), vehicle: water): 235 % of control and 238 % of control
T/C (dose: 300.0 mg/kg/injection, schedule: Q01DX009 (ip), vehicle: saline): 202 % of control and 209 % of control
T/C (dose: 300.0 mg/kg/injection, schedule: Q01DX009 (oral), vehicle: water): 195 % of control
T/C (dose: 300.0 mg/kg/injection, schedule: Q01DX009 (sc), vehicle: water): 180 % of control and 183 % of control (2×)
T/C (dose: 300.0 mg/kg/injection, schedule: Q01DX014 (sc), vehicle: water): 239 % of control
T/C (dose: 300.0 mg/kg/injection, schedule: Q01DX015 (sc), vehicle: water): 227 % of control and 231 % of control
T/C (dose: 300.0 mg/kg/injection, schedule: Q03HX008 (sc), vehicle: water): 155 % of control
T/C (dose: 300.0 mg/kg/injection, schedule: Q04DX003 (sc), vehicle: water): 150 % of control
T/C (dose: 300.0 mg/kg/injection, schedule: Q## X009 (sc), vehicle: water): 218 % of control
T/C (dose: 400.0 mg/kg/injection, schedule: Q01DX009 (ip), vehicle: water): 177 % of control
T/C (dose: 400.0 mg/kg/injection, schedule: Q01DX009 (sc), vehicle: water): 200 % of control and 209 % of control and 304 % of control
T/C (dose: 500.0 mg/kg/injection, schedule: Q01DX014 (sc), vehicle: water): 163 % of control
T/C (dose: 500.0 mg/kg/injection, schedule: Q01DX015 (sc), vehicle: water): 211 % of control and 233 % of control
T/C (dose: 600.0 mg/kg/injection, schedule: Q01DX008 (sc), vehicle: water): 172 % of control and 180 % of control
T/C (dose: 600.0 mg/kg/injection, schedule: Q01DX009 (oral), vehicle: water): 155 % of control
T/C (dose: 600.0 mg/kg/injection, schedule: Q04DX003 (sc), vehicle: water): 170 % of control
T/C (dose: 800.0 mg/kg/injection, schedule: Q01DX009 (ip), vehicle: water): 122 % of control
T/C (dose: 800.0 mg/kg/injection, schedule: Q01DX009 (sc), vehicle: water): 88 % of control
T/C (dose: 800.0 mg/kg/injection, schedule: Q## X009 (sc), vehicle: water): 88 % of control
T/C (dose: 1200.0 mg/kg/injection, schedule: Q01DX009 (oral), vehicle: water): 100 % of control
T/C (dose: 1200.0 mg/kg/injection, schedule: Q04DX003 (sc), vehicle: water): 195 % of control
T/C (dose: 1600.0 mg/kg/injection, schedule: Q01DX001 (sc), vehicle: water): 150 % of control and 157 % of control
T/C (dose: 2400.0 mg/kg/injection, schedule: Q01DX001 (sc), vehicle: water): 150 % of control
T/C (dose: 2400.0 mg/kg/injection, schedule: Q03HX008 (sc), vehicle: water): 90 % of control
